Experimental data published in BindingDB's records for doi:10.7270/Q2DZ06SS (Burnham Center For Chemical Genomics, 2011).

Biological target: T1, BRCA1-associated RING domain protein 1 (Homo sapiens, UniProt Q99728)
T1 sequence (Q99728 whole entry): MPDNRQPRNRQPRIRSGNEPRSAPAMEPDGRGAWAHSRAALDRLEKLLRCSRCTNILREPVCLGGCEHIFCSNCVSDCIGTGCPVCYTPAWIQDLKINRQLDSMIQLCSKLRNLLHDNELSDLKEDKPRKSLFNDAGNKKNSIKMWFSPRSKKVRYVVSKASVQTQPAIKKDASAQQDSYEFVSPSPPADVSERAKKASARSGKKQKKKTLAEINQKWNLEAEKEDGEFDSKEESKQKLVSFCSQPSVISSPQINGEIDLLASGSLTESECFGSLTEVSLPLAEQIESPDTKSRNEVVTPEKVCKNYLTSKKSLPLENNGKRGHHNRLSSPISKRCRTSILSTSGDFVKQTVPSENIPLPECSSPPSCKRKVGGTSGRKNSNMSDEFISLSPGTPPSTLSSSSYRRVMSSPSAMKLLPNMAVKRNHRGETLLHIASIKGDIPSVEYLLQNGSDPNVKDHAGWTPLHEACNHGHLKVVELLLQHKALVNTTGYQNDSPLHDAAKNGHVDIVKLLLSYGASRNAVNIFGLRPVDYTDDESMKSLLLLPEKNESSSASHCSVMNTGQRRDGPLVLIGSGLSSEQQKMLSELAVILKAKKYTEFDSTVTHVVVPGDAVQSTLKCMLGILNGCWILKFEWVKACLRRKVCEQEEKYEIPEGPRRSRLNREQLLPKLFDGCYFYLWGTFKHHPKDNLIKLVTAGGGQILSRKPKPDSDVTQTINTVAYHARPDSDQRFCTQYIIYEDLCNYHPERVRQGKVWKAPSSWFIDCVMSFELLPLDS
Assay: Brca1-Bard1 BiLC signal decrease – cell-based, luminescence, counter-screen for Mdm2/MdmX interaction inhibitor project, dose response (AID 504669)

Cc1cc(N=NC(C)c2ccccc2O)nc(-c2ccccc2O)n1 (stereo unspecified) gave an IC50 of 5.35 µM.
